Measured values taken from paper PMC6454709, “Application of WST-8 based colorimetric NAD(P)H detection for quantitative dehydrogenase assays” (BMC Biochemistry, 2019).
Where two headings read alike, the source gives them in different places.

System: T1, Bacillus GDH
T1 construct: commercial enzyme from GDH activity colorimetric assay kit (Biovision)
Assay: WST-8/1-mPMS formazan assay, […] nm, Michaelis-Menten fit
Type: biochemical
Conditions: 20 mM Tris-HCl pH 9.0, 37 °C

| SMILES | Km (1 mM NAD+, read-out: KM (mM) / Glucose) [mM] | Km (250 mM glucose, read-out: KM (mM) / NAD^+) [mM] |
| --- | --- | --- |
| OC[C@H]1OC(O)[C@H](O)[C@@H](O)[C@@H]1O (stereo partly drawn) [D-(+)-glucose] | 17.1 ± 2 |  |
| NC(=O)c1ccc[n+]([C@@H]2O[C@H](COP(=O)(O)OP(=O)(O)OC[C@H]3O[C@@H](n4cnc5c(N)ncnc54)[C@H](O)[C@@H]3O)[C@@H](O)[C@H]2O)c1 [NAD^+] |  | 0.271 ± 0.027 |
